The structures appear in SMILES notation. Several values for one entry are separate records, joined by “and”; a condition that tells them apart may be missing. Identical values can stand only once. Activity calls are given as the source filed them.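 How the source made its calls: active means fitted AC50 at or below twice the top valid dose for that sample, signal falling; inconclusive means flat curve at 30 to 70 percent inhibition, or bad fit; inactive means the rest.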

Test [1] relates to C. neoformans growth, alamar blue, 24 h. Kind of test: cell lysis of Cryptococcus neoformans, alamar blue – dry powder, set 3, mechanism study for C. neoformans antifungal project, dose response (AID 743298). Background: Alamar Blue is a resazurin reagent that responds to reducing activity.
Assay in test [2]: as above
As to conditions: C. neoformans growth, alamar blue, 24 h; at 35 µM (top of the series).

On to `Cc1cccc2[nH]c(=S)n(CCOc3ccccc3)c12`, for which the AC50 (commonly the concentration at which the activity in the assay is half-maximal) in test [1] was 15.1 µM. In the case of `Cc1ccc(C(C)C)c(OCCn2c(=S)[nH]c3cccc(C)c32)c1`, the activity change, negative = inhibition in test [2] is 35.3% (inactive).

On to `CC(C)(C)c1ccc(OCCn2cnc3ccccc32)cc1`, for which the AC50 in test [1] is 17.5 µM.

For the compound `Cc1cccc(OCCn2c(=S)[nH]c3c(F)cccc32)c1`, the activity change, negative = inhibition in test [2] was -5.91% (inactive) and -16.2% (inactive). The same measure, in the same setting: the result for `CSc1nc2ccccc2n1CCOc1cc(C)ccc1C(C)C` reads -25.9% (inactive). As to `Fc1ccc2[nH]c(=S)n(CCOc3ccccc3)c2c1`, the AC50 in test [1] was 25.2 µM.

As to `Fc1cccc2c1[nH]c(=S)n2CCOc1ccccc1`, the AC50 in test [1] is 20 µM and 22.2 µM. Still for that read-out and setting: the same measure for `CC(C)c1ccccc1OCCn1c(=S)[nH]c2ccccc21`: 20.1 µM. On the same count and under the same terms, the same measure for `S=c1[nH]c2ccccc2n1CCOc1ccc(Cl)cc1`: 6.01 µM. `Cc1ccc(C(C)C)c(OCCn2c(=S)[nH]c3ccc(F)cc32)c1`: the activity change, negative = inhibition in test [2] is 44.9% (inactive). Turning to `COc1cccc(OCCn2c(=S)[nH]c3ccccc32)c1`, the AC50 in test [1] was 28.8 µM. In the case of `Cc1ccc(C(C)C)c(OCCn2c(=S)[nH]c3ccc(Cl)cc32)c1`, the activity change, negative = inhibition in test [2] was 30.7% (inactive). Still for that read-out and setting: the result for `S=c1[nH]c2cc(Cl)ccc2n1CCOc1ccccc1` reads 39.6% (inactive); that for `Cc1ccc(C(C)C)c(OCCn2c(=S)[nH]c3cc(F)ccc32)c1`, 55% (inactive).

Regarding `Cc1ccc(C(C)C)c(OCCn2c(=S)[nH]c3cccc(Cl)c32)c1`, the AC50 in test [1] was 9.67 µM. In the case of `COc1ccccc1OCCn1c(=S)[nH]c2ccccc21`, the activity change, negative = inhibition in test [2] is -19.4% (inactive). Take `Cc1cccc(OCCn2c(=S)[nH]c3ccccc32)c1`: in test [1], the AC50 is 21.1 µM. The same measure, in the same setting: the result for `Fc1cccc(OCCn2c(=S)[nH]c3ccccc32)c1` reads 25.6 µM; that for `CC(C)(C)c1ccc(OCCn2c(=S)[nH]c3ccccc32)cc1`, 7.11 µM; that for `CC(C)c1ccc(OCCn2c(=S)[nH]c3ccccc32)cc1`, 5.77 µM.

For the compound `Cc1ccc(C(C)C)c(OCCn2c(=S)[nH]c3c(C)cccc32)c1`, the activity change, negative = inhibition in test [2] was 59.5% (inactive). Same read-out and setting: the result for `CC(C)c1ccccc1NCCn1c(=S)[nH]c2ccccc21` reads 34.7% (inactive).

Take `Cc1ccc(C(C)C)c(OCCn2c(=S)[nH]c3cccc(F)c32)c1`: in test [1], the AC50 is 13.9 µM. On the same count and under the same terms, the result for `Cc1ccc(OCCn2c(=S)[nH]c3ccccc32)cc1` reads 5.63 µM. As for `COCc1nc2ccccc2n1CCOc1ccc(C(C)(C)C)cc1`, the activity change, negative = inhibition in test [2] is 5.49% (inactive). As for `S=c1[nH]c2ccccc2n1CCOc1ccccc1Cl`, the AC50 in test [1] was 34 µM.

For `S=c1[nH]c2ccccc2n1CCOc1ccccc1`, the AC50 in test [1] was 24.4 µM. Still for that read-out and setting: the result for `COc1ccc(OCCn2c(=S)[nH]c3ccccc32)cc1` reads 30.3 µM; that for `Cc1ccc(OCCn2cnc3ccccc32)cc1`, 12 µM. Turning to `Cc1ccc(OCCn2c(=S)[nH]c3ccccc32)c(C)c1`, the activity change, negative = inhibition in test [2] was 12.9% (inactive). For the compound `Cc1cccc(OCCn2c(=S)[nH]c3ccccc32)c1C`, in test [2], the activity change, negative = inhibition was 51.8% (inactive). In the case of `CC(C)(C)c1ccccc1OCCn1c(=S)[nH]c2ccccc21`, the AC50 in test [1] was 11.2 µM.

Regarding `Cc1ccc(C(C)C)c(OCCn2c(CO)nc3ccccc32)c1`, the activity change, negative = inhibition in test [2] was 8.72% (inactive).

With `Cc1ccc2c(c1)[nH]c(=S)n2CCOc1ccccc1`, the AC50 in test [1] is 12.2 µM and 12.4 µM. Consider `Cc1cccc(OCCn2c(=S)[nH]c3cc(C(F)(F)F)ccc32)c1`, for which the activity change, negative = inhibition in test [2] was 19% (inactive). For the compound `Fc1ccc2c(c1)[nH]c(=S)n2CCOc1ccccc1`, the AC50 in test [1] was 27.5 µM and 26.8 µM. Regarding `Cc1cccc(OCCn2c(=S)[nH]c3cc(F)ccc32)c1`, the AC50 in test [1] is 12.1 µM and 11.7 µM. In the case of `c1ccc(OCCn2cnc3ccccc32)cc1`, the activity change, negative = inhibition in test [2] was 30.3% (inactive). On to `Cc1ccc(OCCn2cnc3ccccc32)c(C(C)C)c1`, for which the AC50 in test [1] was > 70 µM (inactive). In the case of `Fc1ccccc1OCCn1c(=S)[nH]c2ccccc21`, in test [1], the AC50 is 23 µM. In the case of `Cc1ccc(C(C)C)c(OCCn2c(=S)[nH]c3c(Cl)cccc32)c1`, in test [2], the activity change, negative = inhibition was -22.6% (inactive). As for `Cc1ccc(OCCn2c(C)nc3ccccc32)cc1`, in test [1], the AC50 is 21.9 µM.

As to `Cc1ccccc1OCCn1c(=S)[nH]c2ccccc21`, the AC50 in test [1] was > 70 µM (inactive). Still for that read-out and setting: the same measure for `Cc1ccc(OCCn2c(SCCO)nc3ccccc32)c(C(C)C)c1`: 26 µM.

Turning to `S=c1[nH]c2cccc(Cl)c2n1CCOc1ccccc1`, the AC50 in test [1] is 6.34 µM and 6.02 µM. `Cc1ccc(C(C)C)c(OCCn2c(=S)[nH]c3c(F)cccc32)c1`: the activity change, negative = inhibition in test [2] is 16% (inactive). Same read-out and setting: the result for `Cc1cccc(OCCn2c(=S)[nH]c3ccc(C(F)(F)F)cc32)c1` reads 39.4% (inactive). Regarding `O=c1[nH]c2ccccc2n1CCOc1ccccc1`, the AC50 in test [1] is 34 µM. As to `CCOc1ccc(OCCn2c(=S)[nH]c3ccccc32)cc1`, the AC50 in test [1] is 12.3 µM. The same measure, in the same setting: the result for `Cc1ccc(OCCn2c(=S)[nH]c3ccccc32)c(C(C)C)c1` reads 12.3 µM and 10.4 µM. Same read-out and setting: the same measure for `Cc1ccc(C(C)C)c(OCCn2c(=S)[nH]c3ccccc32)c1`: 9.65 µM and 9.22 µM. `Cc1ccc(C)c(OCCn2c(=S)[nH]c3ccccc32)c1`: the activity change, negative = inhibition in test [2] was 26.6% (inactive).

For the origin of these results see PubChem BioAssay AID743298 (Broad Institute, 2014).
